Experimental data taken from patent publication US20100173780A1, “POLYPHENOL-CONTENT-[…] FOR PLANT” (COSMO OIL CO., LTD., priority 2006, published 2010).

Legend:
[1] = tested on: asparagus; experiment: Amount of polyphenol in asparagus after ALA treatment (HPLC); format: in vivo, asparagus (Liliaceae, genus asparagus, race Welcome); conditions: 3 ppm
Method: (§1) Two containers (length: 0.75 m, width 0.5 m) were provided and soil was placed in each of them. A Chemical fertilizer (nitrogen content:phosphorus content:potassium content=15:15:15 as mass ratio) was used as a base fertilizer and young plants of green pepper (Solanaceae, genus cayenne, race Miogi) were grown for two months according to a conventional method. Water was applied to the young plants once a day by means of a sprinkling can. Prior to one month from harvest, treatment was conducted once a week with 50 mL per container of each aqueous solution containing 0 ppm (control) or 1 ppm of 5-aminolevulinic acid hydrochloride to which a spreading agent, Approach BI (manufactured by Kao Corporation) had been added in a ratio of 0.1% by mass. After harvest, 3 g of green pepper was finely cut with scissors and a kitchen knife and then homogenized after addition of water. The homogenized one was diluted up to 6 mL with distilled water (stock solution) and the stock solution was divided into three even portions and used in the following extraction methods (1) to (3). (1) Three mL of ethyl acetate was added to 2 mL of the stock solution and the resultant one was centrifuged at 3000 rpm for 10 minutes. The supernatant was transferred to a spit tube and was evaporated to dryness with nitrogen gas while the tube was immersed in a warm bath at about 60° C. Thereto were added 200 μL of methanol and 100 μL of distilled water, thereby the volume being made 300 μL. (2) Two mL of methanol was added to 2 mL of the stock solution and the resultant one was centrifuged at 3000 rpm for 10 minutes. The supernatant was transferred to a spit tube and was evaporated to dryness with nitrogen gas while the tube was immersed in a warm bath at about 60° C. Thereto were added 200 μL of methanol and 100 μL of distilled water, thereby the volume being made 300 μL. (3) One mL of 0.1N hydrochloric acid was added to 2 mL of the stock solution and the resultant one was transferred to a plastic tube and kept in a drive-lock bath at 96.5° C. for 1 hour to effect hydrolysis. Five mL of ethyl acetate was added thereto and the resultant one was centrifuged at 3000 rpm for 10 minutes. The supernatant was transferred to a spit tube and was evaporated to dryness with nitrogen gas while the tube was immersed in a warm bath at about 60° C. Thereto were added 200 μL of methanol and 100 μL of distilled water, thereby the volume being made 300 μL. The samples from (1) to (3) were measured by high-performance liquid chromatography (HPLC) (analytical conditions: the measurement was performed at a flow rate of 1.0 mL/min at a column temperature of 40° C. using a wavelength of 350 nm, using Liquid A (80% by volume of methanol/5% by volume of acetic acid) or Liquid B (10% by volume of methanol/5% by volume of acetic acid) as an eluent, and using a column of Hichrom5C18, T898, 4.6 mm×[…] (manufactured by LLOYD′S REGISTER QUALITY COMPANY) and each concentration was calculated based on standard solutions. In Table 1, the most highly extracted value was cited among the results measured with each of the extraction methods (1) to (3). Moreover, the sum of individual concentration of polyphenol used in this time was regarded as the total amount of polyphenol.
Prior to 150 days from harvest, treatment to tetraennial-root asparagus (Liliaceae, genus asparagus, race Welcome) grown in a vertical stem form in a greenhouse was conducted once a fortnight with a spraying amount of 100 L/tan of each solution containing 0 ppm (control) or 3 ppm of 5-aminolevulinic acid hydrochloride. After harvest, the content of polyphenol was analyzed in the same manner as in Example 1.

[2] = tested on: parsley; experiment: Amount of polyphenol in parsley after ALA treatment (HPLC); format: in vivo, parsley (Umbelliferae, genus parsley, race Paramount); conditions: 1 ppm
Method: as §1
(§2) Two containers (length: 0.75 m, width 0.5 m) were provided and soil was placed in each of them. A Chemical fertilizer (nitrogen content:phosphorus content:potassium content=15:15:15 as mass ratio) was used as a base fertilizer and seeds of parsley (Umbelliferae, genus parsley, race Paramount) were planted according to a conventional method and water was applied once a day by means of a sprinkling can. Prior to one month from harvest, treatment was conducted once a week with 50 mL per container of each aqueous solution containing 0 ppm (control) or 1 ppm of 5-aminolevulinic acid hydrochloride. After harvest, the content of polyphenol was analyzed in the same manner as in Example 1.

[3] = tested on: pear; experiment: Amount of polyphenol in pear after ALA treatment (HPLC); format: in vivo, pear (Rosaceae, genus pear, race Kosui); conditions: 3 ppm
Method: as §1
Prior to 150 days from harvest, treatment to pear
([…], genus pear, race Kosui) grown in a production farm field was conducted once a fortnight with a spraying amount of 300 L/tan of each aqueous solution containing 0 ppm (control) or 3 ppm of 5-aminolevulinic acid hydrochloride to which a spreading agent, Approach BI (manufactured by Kao Corporation) had been added in a ratio of 0.1% by mass. After harvest, the content of polyphenol was analyzed by HPLC in the same manner as in Example 1.

[4] = tested on: green soybean; experiment: Amount of polyphenol in green soybean after ALA treatment (HPLC); format: in vivo, green soybean (Lagminosae, genus soybean, race Hakusan); conditions: 1 ppm, 100 L/tan once a fortnight after flowering
Method: as §1
(§3) Prior to 210 days from harvest, treatment to green soybean (Lagminosae, genus soybean, race Hakusan) grown in a production farm field was conducted once a fortnight after flowering with a spraying amount of 100 L/tan of each aqueous solution containing 0 ppm (control) or 1 ppm of 5-aminolevulinic acid hydrochloride. After harvest, the content of polyphenol was analyzed by HPLC in the same manner as in Example 1.

[5] = tested on: green pepper; experiment: Amount of polyphenol in green pepper after ALA treatment (HPLC); format: in vivo, green pepper (Solanaceae, genus cayenne, race Miogi)
Method: as §1

[6] = tested on: pepper; experiment: Amount of polyphenol in pepper after ALA treatment (HPLC); format: in vivo, pepper (Solanaceae, genus cayenne; conditions: pepper (race Habanero), 1 ppm
Method: as §1
as §2, with “young plants” for “seeds”, “pepper (Solanaceae,” for “parsley (Umbelliferae,”, “cayenne,” for “parsley,”, “Habanero)” for “Paramount)”

[7] = tested on: tea; experiment: Amount of polyphenol in tealeaf after ALA treatment (HPLC); format: in vivo, tea (Camelliaceae, genus camellia, race Yabukita); conditions: 3 ppm
Method: as §1
as §3, with “to tea (Camelliaceae,” for “to green soybean (Lagminosae,”, “genus camellia,” for “genus soybean,”, “race Yabukita)” for “race Hakusan)”, “a month” for “a fortnight after flowering”, “or 3” for “or 1”

[8] = greenhouse, 100 L/tan once a fortnight from 150 days before harvest, HPLC
[9] = 50 mL per container once a week from one month before harvest, HPLC
[10] = 50 mL per container once a week from one month before harvest, sum of the individual polyphenols
[11] = 50 mL per container once a week, versus 0 ppm control
[12] = 300 L/tan once a fortnight from 150 days before harvest, HPLC
[13] = 1 ppm, 50 mL per container once a week from one month before harvest, HPLC, highest of extraction methods (1)-(3)
[14] = 100 L/tan once a month from 210 days before harvest, HPLC

Cl.NCC(=O)CCC(=O)O [ALA, 5-aminolevulinic acid hydrochloride]
ALA/control ratio of total amount of polyphenol in asparagus ([1]; 100 L/tan once a fortnight, versus 0 ppm control): 2.3 | Apigenin amount in asparagus [1, 8]: 456 ng/g | Caffeic acid amount in asparagus [1, 8]: 0 ng/g | Chlorogenic acid amount in asparagus [1, 8]: 2983 ng/g | Ferulic acid amount in asparagus [1, 8]: 9899 ng/g | Hesperetin amount in asparagus [1, 8]: 20198 ng/g | Isorhamnetin amount in asparagus [1, 8]: 1022 ng/g | Kaempferol amount in asparagus [1, 8]: 723 ng/g | Luteolin amount in asparagus [1, 8]: 1923 ng/g | Quercetin amount in asparagus [1, 8]: 5533 ng/g | Rutin amount in asparagus [1, 8]: 40234 ng/g | Total amount of polyphenol in asparagus ([1]; greenhouse, 100 L/tan once a fortnight from 150 days before harvest, sum of the individual polyphenols): 82971 ng/g | Apigenin amount in parsley [2, 9]: 1099 ng/g | Caffeic acid amount in parsley [2, 9]: 4240 ng/g | Chlorogenic acid amount in parsley [2, 9]: 20820 ng/g | Ferulic acid amount in parsley [2, 9]: 0 ng/g | Hesperetin amount in parsley [2, 9]: 110685 ng/g | Isorhamnetin amount in parsley [2, 9]: 4388 ng/g | Kaempferol amount in parsley [2, 9]: 10321 ng/g | Luteolin amount in parsley [2, 9]: 2733 ng/g | Quercetin amount in parsley [2, 9]: 37699 ng/g | Rutin amount in parsley [2, 9]: 28977 ng/g | Total amount of polyphenol in parsley [2, 10]: 220962 ng/g | ALA/control ratio of total amount of polyphenol in parsley [2, 11]: 3.5 | Apigenin amount in pear [3, 12]: 95 ng/g | Caffeic acid amount in pear [3, 12]: 8400 ng/g | Chlorogenic acid amount in pear [3, 12]: 1819 ng/g | Ferulic acid amount in pear [3, 12]: 12456 ng/g | Hesperetin amount in pear [3, 12]: 81 ng/g | Isorhamnetin amount in pear [3, 12]: 567 ng/g | Kaempferol amount in pear [3, 12]: 18 ng/g | Luteolin amount in pear [3, 12]: 61 ng/g | Quercetin amount in pear [3, 12]: 111 ng/g | Rutin amount in pear [3, 12]: 1595 ng/g | Total amount of polyphenol in pear ([3]; 300 L/tan once a fortnight from 150 days before harvest, sum of the individual polyphenols): 25202 ng/g | ALA/control ratio of total amount of polyphenol in pear ([3]; 300 L/tan once a fortnight, versus 0 ppm control): 2.3 | Apigenin amount in green soybean ([4]; HPLC): 11 ng/g | Caffeic acid amount in green soybean ([4]; HPLC): 0 ng/g | Chlorogenic acid amount in green soybean ([4]; HPLC): 17 ng/g | Ferulic acid amount in green soybean ([4]; HPLC): 3963 ng/g | Hesperetin amount in green soybean ([4]; HPLC): 1841 ng/g | Isorhamnetin amount in green soybean ([4]; HPLC): 0 ng/g | Kaempferol amount in green soybean ([4]; HPLC): 0 ng/g | Luteolin amount in green soybean ([4]; HPLC): 19 ng/g | Quercetin amount in green soybean ([4]; HPLC): 261 ng/g | Rutin amount in green soybean ([4]; HPLC): 1032 ng/g | Total amount of polyphenol in green soybean ([4]; sum of the individual polyphenols): 7143 ng/g | ALA/control ratio of total amount of polyphenol in green soybean ([4]; versus 0 ppm control): 1.4 | Total amount of polyphenol in green pepper ([5]; 1 ppm once a week from one month before harvest, sum of the individual polyphenol concentrations): 48824 ng/g | ALA/control ratio of total amount of polyphenol in green pepper ([5]; 1 ppm once a week from one month before harvest, versus 0 ppm control): 9.4 | Apigenin amount in green pepper [5, 13]: 0 ng/g | Caffeic acid amount in green pepper [5, 13]: 276 ng/g | Chlorogenic acid amount in green pepper [5, 13]: 4856 ng/g | Ferulic acid amount in green pepper [5, 13]: 5680 ng/g | Hesperetin amount in green pepper [5, 13]: 236 ng/g | Isorhamnetin amount in green pepper [5, 13]: 1849 ng/g | Kaempferol amount in green pepper [5, 13]: 668 ng/g | Luteolin amount in green pepper [5, 13]: 644 ng/g | Quercetin amount in green pepper [5, 13]: 28919 ng/g | Rutin amount in green pepper [5, 13]: 5696 ng/g | Apigenin amount in pepper [6, 9]: 2570 ng/g | Caffeic acid amount in pepper [6, 9]: 5520 ng/g | Chlorogenic acid amount in pepper [6, 9]: 18020 ng/g | Ferulic acid amount in pepper [6, 9]: 9270 ng/g | Hesperetin amount in pepper [6, 9]: 0 ng/g | Isorhamnetin amount in pepper [6, 9]: 270 ng/g | Kaempferol amount in pepper [6, 9]: 0 ng/g | Luteolin amount in pepper [6, 9]: 62060 ng/g | Quercetin amount in pepper [6, 9]: 26700 ng/g | Rutin amount in pepper [6, 9]: 457080 ng/g | Total amount of polyphenol in pepper [6, 10]: 581490 ng/g | ALA/control ratio of total amount of polyphenol in pepper [6, 11]: 1.4 | Apigenin amount in tealeaf [7, 14]: 915 ng/g | Caffeic acid amount in tealeaf [7, 14]: 0 ng/g | Chlorogenic acid amount in tealeaf [7, 14]: 3474 ng/g | Ferulic acid amount in tealeaf [7, 14]: 17172 ng/g | Hesperetin amount in tealeaf [7, 14]: 25887 ng/g | Isorhamnetin amount in tealeaf [7, 14]: 3881 ng/g | Kaempferol amount in tealeaf [7, 14]: 970 ng/g | Luteolin amount in tealeaf [7, 14]: 2181 ng/g | Quercetin amount in tealeaf [7, 14]: 8249 ng/g | Rutin amount in tealeaf [7, 14]: 4519 ng/g | Total amount of polyphenol in tealeaf ([7]; 100 L/tan once a month from 210 days before harvest, sum of the individual polyphenols): 67248 ng/g | ALA/control ratio of total amount of polyphenol in tealeaf ([7]; 100 L/tan once a month, versus 0 ppm control): 1.1
